Data as given in ChEMBL document CHEMBL1201862, “PubChem BioAssay data set” (2004).
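Dose response: 5 concentrations. Exposure: 48 h. Format: 96-well plates. Endpoint: linear interpolation; highest concentration if not reached. GI50 is the concentration that inhibits growth by half.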 Active and inactive are the calls of the source. Cut-off read from the data, not from the text of the source: active = GI50 up to about 1.1 µM and inactive = higher.

Key:
Assay in all cases: inhibition of tumour cell growth, NCI panel, 48 h
M19-MEL = test system: M19-MEL
NCI-H23 = test system: NCI-H23
SNB-75 = test system: SNB-75
KM12 = test system: KM12
HCT-15 = test system: HCT-15
COLO 205 = test system: COLO 205
NCI-H226 = test system: NCI-H226
A549 = test system: A549
XF498 = test system: XF498
HT-29 = test system: HT-29
SNB-78 = test system: SNB-78
SN12C = test system: SN12C
SK-OV-3 = test system: SK-OV-3
CAKI-1 = test system: CAKI-1
SK-MEL-5 = test system: SK-MEL-5
UACC-257 = test system: UACC-257
LOX IMVI = test system: LOX IMVI
SNB-19 = test system: SNB-19
SK-MEL-28 = test system: SK-MEL-28
HCC 2998 = test system: HCC 2998
SK-MEL-2 = test system: SK-MEL-2
M14 = test system: M14
EKVX = test system: EKVX
DMS-114 = test system: DMS-114
OVCAR-8 = test system: OVCAR-8
U-251 = test system: U-251
K562 = test system: K562
HOP-92 = test system: HOP-92
CCRF-CEM = test system: CCRF-CEM
ACHN = test system: ACHN
DMS-273 = test system: DMS-273
TK-10 = test system: TK-10
Malme-3M = test system: Malme-3M
DLD-1 = test system: DLD-1
KM-20L2 = test system: KM-20L2
A498 = test system: A498
HCT-116 = test system: HCT-116
OVCAR-3 = test system: OVCAR-3
IGROV-1 = test system: IGROV-1
SW-620 = test system: SW-620
UO-31 = test system: UO-31
OVCAR-4 = test system: OVCAR-4
SF-295 = test system: SF-295
NCI-H460 = test system: NCI-H460
LXFL 529 = test system: LXFL 529
786-0 = test system: 786-0
OVCAR-5 = test system: OVCAR-5
SF-539 = test system: SF-539
SF-268 = test system: SF-268
MOLT-4 = test system: MOLT-4
UACC-62 = test system: UACC-62
NCI-H522 = test system: NCI-H522
HOP-62 = test system: HOP-62
HOP-18 = test system: HOP-18
SR = test system: SR
RPMI-8226 = test system: RPMI-8226
HL-60 = test system: HL-60
RXF 393 = test system: RXF 393
MCF7 = test system: MCF7
NCI/ADR-RES = test system: NCI/ADR-RES

CC(C)OP(=O)(NC(=S)c1ccccc1)OC(C)C
GI50 (M19-MEL): > 100 µM (inactive)
GI50 (NCI-H23): > 100 µM (inactive)
GI50 (SNB-75): > 100 µM (inactive)
GI50 (KM12): > 100 µM (inactive)
GI50 (HCT-15): > 100 µM
GI50 (COLO 205): > 100 µM (inactive)
GI50 (NCI-H226): > 100 µM (inactive)
GI50 (A549): 92 µM (inactive)
GI50 (XF498): > 100 µM (inactive)
GI50 (HT-29): 43.5 µM (inactive)
GI50 (SNB-78): > 100 µM (inactive)
GI50 (SN12C): 95.1 µM (inactive)
GI50 (SK-OV-3): > 100 µM (inactive)
GI50 (CAKI-1): > 100 µM (inactive)
GI50 (SK-MEL-5): 34.5 µM (inactive)
GI50 (UACC-257): > 100 µM (inactive)
GI50 (LOX IMVI): > 100 µM (inactive)
GI50 (SNB-19): > 100 µM (inactive)
GI50 (SK-MEL-28): > 100 µM (inactive)
GI50 (HCC 2998): > 100 µM (inactive)
GI50 (SK-MEL-2): > 100 µM (inactive)
GI50 (M14): > 100 µM (inactive)
GI50 (EKVX): > 100 µM (inactive)
GI50 (DMS-114): 70.8 µM (inactive)
GI50 (OVCAR-8): > 100 µM (inactive)
GI50 (U-251): > 100 µM (inactive)
GI50 (K562): > 100 µM (inactive)
GI50 (HOP-92): > 100 µM (inactive)
GI50 (CCRF-CEM): 74.5 µM (inactive)
GI50 (ACHN): > 100 µM (inactive)
GI50 (DMS-273): > 100 µM (inactive)
GI50 (TK-10): > 100 µM (inactive)
GI50 (Malme-3M): > 100 µM (inactive)
GI50 (DLD-1): > 100 µM (inactive)
GI50 (KM-20L2): > 100 µM (inactive)
GI50 (A498): 43 µM (inactive)
GI50 (HCT-116): > 100 µM (inactive)
GI50 (OVCAR-3): > 100 µM (inactive)
GI50 (IGROV-1): > 100 µM (inactive)
GI50 (SW-620): > 100 µM (inactive)
GI50 (UO-31): > 100 µM (inactive)
GI50 (OVCAR-4): > 100 µM (inactive)
GI50 (SF-295): > 100 µM (inactive)
GI50 (NCI-H460): 23.4 µM (inactive)
GI50 (LXFL 529): 57.7 µM (inactive)
GI50 (786-0): > 100 µM (inactive)
GI50 (OVCAR-5): > 100 µM (inactive)
GI50 (SF-539): > 100 µM (inactive)
GI50 (SF-268): > 100 µM (inactive)
GI50 (MOLT-4): 80.7 µM (inactive)
GI50 (UACC-62): 71.1 µM (inactive)

O=c1c2cc(Br)ccc2n(C2OC(CO)C(O)C(O)C2O)c(=S)n1-c1ccccc1 (centres undefined)
GI50 (M19-MEL): > 100 µM (inactive)
GI50 (NCI-H23): > 100 µM (inactive)
GI50 (SNB-75): 68.1 µM (inactive)
GI50 (KM12): > 100 µM (inactive)
GI50 (HCT-15): > 100 µM
GI50 (COLO 205): > 100 µM (inactive)
GI50 (NCI-H226): > 100 µM (inactive)
GI50 (A549): > 100 µM (inactive)
GI50 (XF498): 50.5 µM (inactive)
GI50 (HT-29): > 100 µM (inactive)
GI50 (SNB-78): > 100 µM (inactive)
GI50 (SN12C): > 100 µM (inactive)
GI50 (UACC-257): > 100 µM (inactive)
GI50 (LOX IMVI): > 100 µM (inactive)
GI50 (SNB-19): > 100 µM (inactive)
GI50 (SK-MEL-28): > 100 µM (inactive)
GI50 (NCI-H522): > 100 µM (inactive)
GI50 (HOP-62): > 100 µM (inactive)
GI50 (HCC 2998): > 100 µM (inactive)
GI50 (SK-MEL-2): > 100 µM (inactive)
GI50 (EKVX): > 100 µM (inactive)
GI50 (DMS-114): > 100 µM (inactive)
GI50 (OVCAR-8): > 100 µM (inactive)
GI50 (U-251): > 100 µM (inactive)
GI50 (K562): > 100 µM (inactive)
GI50 (HOP-92): 98.2 µM (inactive)
GI50 (HOP-18): > 100 µM (inactive)
GI50 (ACHN): > 100 µM (inactive)
GI50 (SR): 73.3 µM (inactive)
GI50 (TK-10): > 100 µM (inactive)
GI50 (Malme-3M): > 100 µM (inactive)
GI50 (DLD-1): > 100 µM (inactive)
GI50 (KM-20L2): > 100 µM (inactive)
GI50 (A498): > 100 µM (inactive)
GI50 (HCT-116): > 100 µM (inactive)
GI50 (OVCAR-3): > 100 µM (inactive)
GI50 (IGROV-1): > 100 µM (inactive)
GI50 (SW-620): > 100 µM (inactive)
GI50 (UO-31): > 100 µM (inactive)
GI50 (OVCAR-4): > 100 µM (inactive)
GI50 (SF-295): > 100 µM (inactive)
GI50 (NCI-H460): > 100 µM (inactive)
GI50 (LXFL 529): 74.3 µM (inactive)
GI50 (786-0): 82.4 µM (inactive)
GI50 (OVCAR-5): > 100 µM (inactive)
GI50 (SF-539): > 100 µM (inactive)
GI50 (RPMI-8226): > 100 µM (inactive)
GI50 (SF-268): > 100 µM (inactive)
GI50 (HL-60): > 100 µM (inactive)
GI50 (MOLT-4): 86.7 µM (inactive)
GI50 (RXF 393): > 100 µM (inactive)

O=S(=O)(O)c1cc(/N=[N+](\[O-])c2ccc(/N=N/c3ccccc3)cc2S(=O)(=O)O)ccc1/C=C/c1ccc(/N=[N+](\[O-])c2ccc(/N=N/c3ccccc3)cc2S(=O)(=O)O)cc1S(=O)(=O)O
GI50 (M19-MEL): > 100 µM (inactive)
GI50 (NCI-H23): > 100 µM (inactive)
GI50 (SNB-75): 72.8 µM (inactive)
GI50 (KM12): > 100 µM (inactive)
GI50 (HCT-15): > 100 µM
GI50 (COLO 205): > 100 µM (inactive)
GI50 (NCI-H226): > 32.6 µM (inactive)
GI50 (A549): > 100 µM (inactive)
GI50 (XF498): > 100 µM (inactive)
GI50 (MCF7): > 100 µM (inactive)
GI50 (HT-29): > 100 µM (inactive)
GI50 (SNB-78): > 100 µM (inactive)
GI50 (SN12C): > 100 µM (inactive)
GI50 (SK-OV-3): > 100 µM (inactive)
GI50 (SK-MEL-5): > 100 µM (inactive)
GI50 (UACC-257): > 100 µM (inactive)
GI50 (LOX IMVI): > 100 µM (inactive)
GI50 (SNB-19): > 100 µM (inactive)
GI50 (SK-MEL-28): > 100 µM (inactive)
GI50 (NCI-H522): > 100 µM (inactive)
GI50 (HOP-62): > 100 µM (inactive)
GI50 (HCC 2998): > 100 µM (inactive)
GI50 (SK-MEL-2): > 100 µM (inactive)
GI50 (EKVX): > 100 µM (inactive)
GI50 (DMS-114): > 100 µM (inactive)
GI50 (OVCAR-8): > 100 µM (inactive)
GI50 (U-251): > 100 µM (inactive)
GI50 (K562): > 100 µM (inactive)
GI50 (HOP-92): > 100 µM (inactive)
GI50 (HOP-18): > 100 µM (inactive)
GI50 (CCRF-CEM): > 95.3 µM (inactive)
GI50 (DMS-273): > 95.3 µM (inactive)
GI50 (Malme-3M): > 100 µM (inactive)
GI50 (DLD-1): > 100 µM (inactive)
GI50 (A498): > 100 µM (inactive)
GI50 (HCT-116): > 100 µM (inactive)
GI50 (OVCAR-3): > 100 µM (inactive)
GI50 (IGROV-1): > 100 µM (inactive)
GI50 (SW-620): > 100 µM (inactive)
GI50 (UO-31): > 100 µM (inactive)
GI50 (OVCAR-4): > 87.3 µM (inactive)
GI50 (SF-295): > 58.3 µM (inactive)
GI50 (NCI-H460): > 100 µM (inactive)
GI50 (OVCAR-5): > 100 µM (inactive)
GI50 (SF-539): > 31.6 µM (inactive)
GI50 (RPMI-8226): > 100 µM (inactive)
GI50 (SF-268): > 100 µM (inactive)
GI50 (NCI/ADR-RES): > 100 µM (inactive)
GI50 (HL-60): > 100 µM (inactive)
GI50 (MOLT-4): > 100 µM (inactive)
GI50 (UACC-62): > 100 µM (inactive)
GI50 (RXF 393): > 100 µM (inactive)
